For the test, the system named is A673 NR0B1-luciferase reporter, viability-normalised luminescence. The test is described as follows: NR0B1 reporter signal reduction in A673 cells – cell-based, luciferase luminescence, cherry-pick, EWS/Fli inhibitor project, dose response (AID 686920).

Data on 81 compounds can be found in PubChem BioAssay AID686920 (Broad Institute, 2013).

Bounds are passed on as bounds.

As to `C[C@H]1CN([C@@H](C)CO)C(=O)Cc2cc(NC(=O)CCCCCC(=O)Nc3ccccc3N)ccc2O[C@H]1CN(C)Cc1ccc(Oc2ccccc2)cc1`, the AC35 is 5.63 µM.

Consider `COC(=O)C[C@@H]1CC[C@@H]2[C@@H](COc3ccc(NC(=O)Nc4ccc(C#N)cc4)cc3C(=O)N2C)O1`, for which the AC35 was 56.2 µM.

For the compound `Cc1c(Cl)cnc(NC(=O)COC(=O)c2ccc3ncsc3c2)c1Cl`, the AC35 was 7.23 µM.

For `O=C(C[C@H]1C[C@H]2c3cc(NS(=O)(=O)c4ccc(F)cc4)ccc3O[C@H]2[C@H](CO)O1)NCc1ccc(Oc2ccccc2)cc1`, the AC35 is 6.22 µM.

Regarding `C#CCOCCOCCOCCNc1nc(N2CCN(C(=O)CCCCCCCCCCNC(=O)Cn3cc(C[C@@H](C)O)nn3)CC2)nc(N2CCN(C(=O)CCCCCCCCCCNC(=O)[C@H](CO)n3cc(CCCSC)nn3)CC2)n1`, the AC35 was 9.81 µM.

`C[C@@H]1CN([C@@H](C)CO)C(=O)c2cc(NC(=O)Nc3ccccc3)ccc2O[C@@H]1CN(C)Cc1ccc(C(=O)Nc2ccccc2N)cc1`: the AC35 is 5.75 µM.

In the case of `O=C1NC(=O)N(Cc2ccc(F)cc2)C(=O)/C1=C\C=C\c1ccco1`, the AC35 was 7.32 µM.

Consider `Cc1ccccc1S(=O)(=O)N1CC[C@@H]2[C@@H](CO)Nc3ccc(-c4ccc(C#N)cc4)cc3[C@@H]21`, for which the AC35 was 5.42 µM.

With `CCNC(=O)c1cc2c(c(-c3cccc(-c4cccc(OC)c4)c3)n1)[C@H](CCO)N([S@@](=O)C(C)(C)C)C2`, the AC35 is 6.78 µM.

`O=C(Nc1ccc(OC(=O)N2CCCCC2)cc1)N1CCOCC1`: the AC35 is 4.3 µM.

On to `O=c1c(Cl)cc(Cl)nn1-c1ccccc1`, for which the AC35 is 8.95 µM.

Consider `C[C@@H]1O[C@@H](O[C@@H]2C=C3CCC4C(CC[C@]5(C)[C@@H](c6ccc(=O)oc6)CC[C@]45O)[C@@]3(C)CC2)[C@H](O)[C@H](O)[C@H]1O` (stereo partly specified), for which the AC35 is < 0.09 µM.

Regarding `CCOc1ccc(C(c2c(NC(=O)c3ccccc3)sc(C)c2C)N2CCN(CCO)CC2)cc1` (stereo unspecified), the AC35 is 46.3 µM.

Regarding `Cc1cccc(/C=C(\c2nc3ccccc3[nH]2)S(=O)(=O)c2ccccc2)c1`, the AC35 is 5.46 µM.

As for `N#C[C@@H]1[C@H](c2ccc(C#Cc3ccccc3F)cc2)[C@@H](CO)N1C(=O)c1cccnc1`, the AC35 was 5.46 µM.

Turning to `Cc1nc2ncccn2c1-c1csc(Nc2ccc(O)cc2)n1`, the AC35 is 8.68 µM.

Regarding `C[C@@H]1CN([C@H](C)CO)C(=O)c2cc(N(C)C)ccc2O[C@H]1CN(C)Cc1ccc(C(=O)Nc2ccccc2N)cc1`, the AC35 was 9.4 µM.

For the compound `O=C(Nc1cccc(S(=O)(=O)N2CCCC2)c1)c1ccc(Cl)nc1`, the AC35 was 8.45 µM.

`Cc1nn(Cc2ccccc2Cl)c2sc(C(=O)Nc3ccccc3N3CCOCC3)cc12`: the AC35 is 10.3 µM.

Turning to `CCc1ccc(/C=C2\SC(=S)N(CCCC(=O)NCCCN3CCOCC3)C2=O)cc1`, the AC35 is 1.98 µM.

With `CCCCCCCCCCCCCCCCCCNc1ccn(C2OC(COP(=O)(O)OCC3OC(n4cc(F)c(=O)[nH]c4=O)CC3O)C(O)C2O)c(=O)n1` (stereo unspecified), the AC35 was 18.8 µM.

As for `Cn1ccc2cc(-c3ccc4ncnc(NCc5cccs5)c4c3)ccc21`, the AC35 is 4.12 µM.

With `C[C@]12CC[C@H](O)C[C@H]1CC[C@@H]1C2CC[C@]2(C)[C@@H](C3=CC(=O)OC3)[C@@H](O)C[C@]12O` (stereo partly specified), the AC35 is 2.86 µM.

Regarding `CN(C)c1ccc(N=Nc2nc3ccccc3n2C)cc1`, the AC35 was 12.5 µM.

Consider `COC(=O)Cc1ccc(NC(=O)c2ccccc2Cl)cc1`, for which the AC35 was 2.6 µM.

Consider `COc1ccc(/C=C2/NC(=O)N(CC(=O)Nc3cccc(C)c3)C2=O)cc1O`, for which the AC35 was 9.76 µM.

With `O=C(O)c1ccc(N/N=C/c2ccc3c(c2)OCO3)cc1`, the AC35 was 0.644 µM.

Turning to `O=C(NC[C@@H]1N[C@@H](CO)[C@H]1c1ccc(C2=CCCCC2)cc1)c1cccc(F)c1`, the AC35 was 29.8 µM.

Take `Cc1cc(C(=O)Nc2ccc3c(c2)C(=O)N(C)[C@@H]2CC[C@H](CC(=O)N[C@H](C)c4ccccc4)O[C@H]2CO3)no1`: the AC35 was 10.2 µM.

As for `C[C@H]1CN([C@@H](C)CO)C(=O)c2cc(NC(=O)C3CCCCC3)ccc2O[C@H]1CN(C)Cc1ccc(C(=O)Nc2ccccc2N)cc1`, the AC35 is 4.8 µM.

Turning to `C(=N\Nc1nc2ccccc2s1)/c1ccccn1`, the AC35 is 0.77 µM.

Regarding `C[C@@H]1CN([C@@H](C)CO)C(=O)c2cc(N(C)C)ccc2O[C@H]1CN(C)Cc1ccc(C(=O)Nc2ccccc2N)cc1`, the AC35 was 12.7 µM.

Take `Nc1nc2cc3c(cc2cc1C(=O)NCCc1c[nH]c2ccccc12)OCO3`: the AC35 was 4.31 µM.

Turning to `CC(C)Oc1ccc(Br)cc1C(=O)N/N=C/c1c[nH]c2ccccc12`, the AC35 was 17.2 µM.

As for `COC(=O)C[C@@H]1CC[C@@H]2[C@H](COc3ccc(NC(=O)c4ccc(C(F)(F)F)cc4)cc3C(=O)N2C)O1`, the AC35 is 12.1 µM.

As for `CCc1ccc(/C=C2\SC(=S)N(CCCC(=O)NC3=NCCS3)C2=O)cc1`, the AC35 is 0.588 µM.

Regarding `CN=c1scc(-c2ccccc2F)n1/N=C/c1ccc(O)c(O)c1O`, the AC35 is 15.7 µM.

As to `COc1ccc(/C=C(/C(=O)c2cccs2)N2C=CC=CC2=C(C#N)C#N)cc1`, the AC35 was 37.2 µM.

As to `C[C@@H]1CN([C@@H](C)CO)C(=O)c2cccc(NC(=O)CCCCCC(=O)Nc3ccccc3N)c2O[C@@H]1CN(C)Cc1ccc(Oc2ccccc2)cc1`, the AC35 was 6.74 µM.

Take `O=c1[nH]c(=O)n([C@H]2C[C@H](O)[C@@H](CO)O2)cc1F`: the AC35 is 2.63 µM.

`COc1ccc(C2=NNC(=Nc3cc(S(=O)(=O)N(C)C)ccc3C)SC2)c(OC)c1`: the AC35 is 9.53 µM.

Turning to `O=c1ccc2[n+]([O-])c3ccc(O)cc3oc-2c1`, the AC35 was 3.7 µM.

Turning to `Cc1cc(-c2nc3ccccc3s2)ccc1N`, the AC35 is 7.98 µM.

For the compound `C[C@@H]1CN([C@@H](C)CO)C(=O)c2cc(NS(=O)(=O)c3ccccc3)ccc2O[C@@H]1CN(C)Cc1ccc(C(=O)Nc2ccccc2N)cc1`, the AC35 was 9.16 µM.

Take `COc1cc(/C=N/NS(=O)(=O)c2ccc3ccccc3c2)ccc1OCc1ccc(C(=O)O)cc1`: the AC35 was 2.91 µM.

As to `COc1ccc(S(=O)(=O)Nc2cccc3c2O[C@H](CN(C)Cc2ccc(C(=O)Nc4ccccc4N)cc2)[C@H](C)CN([C@@H](C)CO)C3=O)cc1`, the AC35 is 5.64 µM.

In the case of `CC(C)N1C/C(=C/c2cccnc2)C(=O)/C(=C/c2cccnc2)C1`, the AC35 is 10.8 µM.

As to `C[C@H]1CN([C@@H](C)CO)C(=O)c2cc(NS(=O)(=O)c3ccc(Cl)cc3)ccc2O[C@H]1CN(C)Cc1ccc(Cl)c(Cl)c1`, the AC35 was 40.5 µM.

In the case of `COc1ccc(-c2nc3c(s2)CCc2onc(-c4ccc(OC)cc4)c2-3)cc1`, the AC35 is 7.59 µM.

In the case of `COc1ccc(NC(=O)N(C)[C@H]2C[C@H]3c4[nH]c5ccccc5c4CCN3C(=O)[C@H]2CO)cc1`, the AC35 is 12 µM.

As for `COc1ccc(N=C2C(=O)Nc3ccc(C)c(Br)c32)cc1`, the AC35 was 10 µM.

Consider `Cc1cccc(CN2C(=O)/C(=C\c3ccc(C(=O)NCCCN4CCN(C)CC4)cc3)Oc3ccccc32)c1`, for which the AC35 was 11.6 µM.

Regarding `Cc1ccc(S(=O)(=O)N(C)C[C@@H]2Oc3ccc(NC(=O)CCCCCC(=O)Nc4ccccc4N)cc3CC(=O)N([C@@H](C)CO)C[C@@H]2C)cc1`, the AC35 was 11 µM.

Regarding `CCc1ccc(/C=C2\SC(=S)N(CCCC(=O)Nc3cc(C)on3)C2=O)cc1`, the AC35 is 0.947 µM.

As for `COc1cccc(OC)c1C(=O)Nc1cc(C)nn1-c1nc2ccccc2[nH]1`, the AC35 is 26.7 µM.

On to `COCC(=O)Nc1ccc2c(c1)[C@@H]1C[C@@H](CC(=O)NCc3ccc(-c4ccccc4)cc3)O[C@@H](CO)[C@@H]1O2`, for which the AC35 is 10.1 µM.

`Cc1ccc(S(=O)(=O)N(C)C[C@H]2Oc3c(cccc3N(C)C)C(=O)N([C@@H](C)CO)C[C@@H]2C)cc1`: the AC35 was 1.62 µM.

For the compound `Cc1cc(C)cc(N2C(=O)NC(=O)/C(=C\C=C\c3ccco3)C2=O)c1`, the AC35 is 4.31 µM.

Take `O=c1[nH]c(=O)n([C@H]2C[C@H](O)[C@@H](CO)O2)cc1C(F)(F)F`: the AC35 is 3.33 µM.

For the compound `C/C(=N\NC(=O)c1n[nH]c2c1CCC2)c1cccs1`, the AC35 was 1.78 µM.

In the case of `O=C(CCCN1C(=O)/C(=C/c2ccccc2Cl)SC1=S)NNC(=O)c1ccc(Cl)cc1`, the AC35 was 8.68 µM.

Regarding `CCc1ccc(S(=O)(=O)c2ccc(-n3nc(C)cc3N)cc2)cc1`, the AC35 was 31.4 µM.

As for `COc1cc(OC)cc(-c2cc3nc(C)c(CCC(=O)O)c(C)n3n2)c1`, the AC35 is 0.243 µM.

Take `CN(C)c1ccc(N=Nc2ccc(C(=O)O)cc2)cc1`: the AC35 is 5.73 µM.

For the compound `COc1ccc2oc(-c3ccccc3)cc(=O)c2c1`, the AC35 was 8.22 µM.

`Oc1c(Cl)cc(Cl)c(Cl)c1Cc1c(O)c(Cl)cc(Cl)c1Cl`: the AC35 was 35.3 µM.

Turning to `COc1ccc(/C=C2/SC(=S)N(CCCC(=O)Nc3ccccc3C(=O)O)C2=O)cc1`, the AC35 was 5.83 µM.

For `COc1cccc(-c2cccc(-c3nc(C(=O)NCC(F)(F)F)cc4c3[C@H](CCO)N([S@@](=O)C(C)(C)C)C4)c2)c1`, the AC35 was 3.19 µM.

Consider `O=C(O)c1cccc(N/N=C/c2ccc(OC(F)(F)F)cc2)c1`, for which the AC35 is 2.26 µM.

Turning to `C/C(=N\OCc1cccc(C(=O)O)c1)c1ccc(Cl)cc1`, the AC35 is 0.832 µM.

Turning to `CCCCCCCCn1c2c(c(=N)c3c1CCC3)CCCC2`, the AC35 is 5.73 µM.

On to `O=C(CN1C(=O)c2ccccc2S1(=O)=O)c1ccc(F)cc1`, for which the AC35 was 3.98 µM.

Turning to `CN(c1ccc(NC(=O)CCc2c[nH]c3ccccc23)cc1)c1ccccn1`, the AC35 is 4.96 µM.

`C[C@@H]1CN([C@@H](C)CO)C(=O)c2cccc(NS(=O)(=O)c3ccc(F)cc3)c2O[C@@H]1CN(C)Cc1ccc(C(=O)Nc2ccccc2N)cc1`: the AC35 is 6.97 µM.

`COc1ccc(Cn2cc3c(-c4ccc(F)cc4)nnc-3c3cc(OC)c(OC)cc32)cc1`: the AC35 is 14.1 µM.

With `O=C(O)c1ccc(N/N=C/c2ccc3nccnc3c2)cc1`, the AC35 was 0.993 µM.

As to `CN(C)c1ccc2c(c1)[C@@H]1C[C@@H](CC(=O)NCc3ccc(Oc4ccccc4)cc3)O[C@H](CO)[C@@H]1O2`, the AC35 was 5.8 µM.

On to `CCc1cnc(N2[C@H](C#N)[C@H](c3ccc(C#Cc4ccccc4F)cc3)[C@H]2CO)s1`, for which the AC35 was 9.23 µM.

Turning to `CCCc1cc(=O)oc2c3c(c4c(c12)OC(C)(C)C=C4)OC(C)C(C)C3O` (stereo unspecified), the AC35 is 33.3 µM.

On to `O=C(Nc1ccc(F)cc1)N1CCCCN2[C@@H](CO)[C@H](c3ccc(C4=CCCCC4)cc3)[C@@H]2C1`, for which the AC35 is 13.3 µM.

Regarding `CCOc1ccc(-c2cc(CCCC(=O)N3CCN(c4ccc(OC)cc4)CC3)no2)cc1`, the AC35 was 27.6 µM.
